Key:
[1] = test system: MDA-MB-231; assay: Cell survival by surface coverage (% inhibition); settings: Breast MDA-MB-231
[2] = test system: A2780 cells; assay: LC-PWS microscopy quantification of chromatin heterogeneity; type: cell-based; settings: 5 nM for 24 hours
[3] = test system: cancer cell lines; assay: Live cell PWS of chromatin folding/heterogeneity (D, Σ); type: cell-based; settings: five cell line models (A2780, M248, MDA-MB-231, MES-SA, MX2)
Protocol: Test compounds were screened for CPT activity using live cell PWS imaging. Control and 30-60 minute CPT-treated cells were imaged with live cell PWS to determine their effect on nuclear nanoscale heterogeneity (See FIG. 11A for exemplary tested compounds). […]

[4] = test system: A2780.m248; assay: Cell survival by surface coverage (% inhibition / cell death); type: cell-based
Protocol: These compounds were tested in combination with the chemotherapy drug paclitaxel.

[5] = test system: A2780; assay: as above; settings: Ovarian A2780; after 48 hours, surface coverage relative to control

SMILES: CC(=O)O[C@H]1C(=O)[C@@]2(C)[C@H]([C@H](OC(=O)c3ccccc3)[C@]3(O)C[C@H](OC(=O)[C@H](O)[C@@H](NC(=O)c4ccccc4)c4ccccc4)C(C)=C1C3(C)C)[C@]1(OC(C)=O)CO[C@@H]1C[C@@H]2O [Paclitaxel]
- % Inhibition [1]: 50%
- chromatin heterogeneity after treatment [2]: increase in chromatin heterogeneity
- structural alteration of chromatin folding [3]: increases
- Surface coverage relative to control (% survival) ([4]; A2780.m248): 43%
- % Inhibition ([4]; Ovarian A2780.m248, after 48 hours, surface coverage relative to control): 57%
- % Inhibition [5]: 21%

From patent publication US20200217837A1, “CHROMATIN PROTECTIVE THERAPEUTICS AND CHROMATIN HETEROGENEITY” (Northwestern University, priority 2016, published 2020)
